# Test results published in US6245968A, “Mutated hydroxyphenylpyruvate dioxygenase, DNA sequence and isolation of plants which contain such a gene and which are tolerant to herbicides” (Aventis CropScience S.A., priority 1997, dated 2001).
# Assays:
# [1] = test system: Pseudomonas fluorescens A32 HPPD variant PfP334 (Glycine334 replaced by proline); assay: Colorimetric screening test (browning of medium) in E. coli; format: cell-based; settings: 7 mM inhibitor, score 0 to 10
# Description: (§1) A culture medium of the YT broth type, containing 1% agarose (Gibco BRL ultra pure), 5 mM L-tyrosine (Sigma) and the agent for selecting the above mentioned pRPC vector, is dispensed into a 96-well plate at the rate of […] per well. 10 microliter of a culture of E.coli in the exponential phase of growth and harbouring the pRPC vector are dispensed into each well. After 16 hours at 37° C., the wells which only contain the culture medium, or those which have been seeded with an E. coli culture harbouring the vector pKK233-2, are translucent whereas the wells which have been seeded with an E. coli culture harbouring the vector pRPC are coloured brown.
# (§2) A series of samples was made up with identical culture medium which contained varying concentrations (0 mM to 14 mM) of 2-cyano-3-cyclopropyl-1-(2-methylsulphonyl-4-trifluoromethylphenyl)propane-1,3-dione (EP 0496631), which was dissolved in water and brought to pH7.5. This molecule is a diketonitrile which is recognized as being an effective inhibitor of HPPD activity (Pallett, K. E. et al., 1997. Pestic. Sci. 50, 83-84).
# [2] = test system: Pseudomonas fluorescens A32 HPPD variant PfS334 (Glycine334 replaced by serine); assay: as above; format: cell-based; settings: 7 mM inhibitor, score 0 to 10
# Description: as §1, §2
# [3] = test system: Pseudomonas fluorescens A32 HPPD variant PfL333 (Phenylalanine333 replaced by leucine); assay: as above; format: cell-based; settings: 7 mM inhibitor, score 0 to 10
# Description: as §1, §2
# [4] = test system: Pseudomonas fluorescens A32 HPPD variant PfL215 (proline 215 replaced by leucine); assay: as above; format: cell-based; settings: 7 mM inhibitor, score 0 to 10
# Description: as §1, §2
# [5] = test system: Pseudomonas fluorescens A32 HPPD variant PfE298 (Gly298 replaced by glutamic acid); assay: as above; format: cell-based; settings: 7 mM inhibitor
# Description: as §1, §2
# [6] = test system: Pseudomonas fluorescens A32 HPPD variant PfD334 (Glycine334 replaced by aspartic acid); assay: as above; format: cell-based; settings: 7 mM inhibitor, score 0 to 10
# Description: as §1, §2
# [7] = test system: Pseudomonas fluorescens A32 HPPD variant PfW334 (Glycine334 replaced by tryptophan); assay: as above; format: cell-based; settings: 7 mM inhibitor, score 0 to 10
# Description: as §1, §2
# [8] = test system: Synechocystis PCC6803 HPPD variant SyN318 (Glycine318 replaced with asparagine); assay: HPPD activity by HPLC determination of homogentisate (Km, IC50); format: biochemical; settings: SyN318 versus unmutated Synechocystis HPPD; 10 min
# Description: (§3) Glycine318, replaced with asparagine, designated SyN318, similar to PfD334 (in Example 3).
# (§4) The mutants SyN318 and SyA318 which were obtained in the previous example were examined, in comparison with the unmutated HPPD of Synechocystis, for the biochemical characteristics Km and IC50 with regard to an HPPD inhibitor, i.e. 2-cyano-3-cyclopropyl-1-(2-methylsulphonyl-4-trifluoromethylphenyl)propane-1,3-dione. This analysis was carried out using the following protocol:
# (§5) The HPPD activity is measured by determining, by means of high performance liquid chromatography (HPLC), the quantity of product, i.e. homogentisate,which is formed after incubating the enzyme with its substrate HPP. Injecting different amounts of homogentisate, varying from 12 to 48 nmoles, into the column enables the retention time of the homogentisate to be determined and the peak area to be correlated with the quantity of product injected.
# (§6) The activity measurements are carried out in a final volume of […] containing: 12.6 mM ascorbate, […] iron (FeH8N2O8S2,6H2O) (previously prepared in 0.1 M tris-acetate buffer, pH6), […] of crude extract containing the HPPD, […] HPP and 0.1 M tris-acetate buffer, pH7.5. The enzyme is firstly incubated with the iron at 30° C. for 1 min and then with the ascorbate at 30° C. for 5 min before the reaction is started by adding the substrate, i.e. the HPP. The incubation is continued at 30° C. for 1 min 30sec and the reaction is then stopped by adding […] of 20% perchloric acid. The proteins are then removed by centrifuging for 5min at 15,300 rpm and at 20° C. The supernatant is recovered. The quantity of homogentisate formed is then analysed by injecting […] of assay mixture into a Pico TagC18 column which is connected to the HPLC system. […] On leaving the column, the homogentisate is detected by measuring absorbance at 288 nm. The quantity of product formed is defined by the area of the peak on the chromatogram.
# (§7) The Km of the HPPD for HPP is determined by measuring the initial velocity of the reaction using different concentrations of HPP. […]
# [9] = molecular target: T1, Synechocystis PCC6803 HPPD variant SyN318 (Glycine318 replaced with asparagine) (Synechocystis sp., UniProt Q55810, G318N); assay: as above; format: biochemical
# T1 construct: made in house; host or cells: E. coli, vector ptrc-99 A; crude extract (JM105 is named for the unmutated plasmid)
# Description: as §3, §4, §5, §6, §7
# [10] = molecular target: T2, Synechocystis PCC6803 HPPD, unmutated (Synechocystis sp., UniProt Q55810); assay: Colorimetric screening test (browning of medium) in E. coli; format: cell-based; settings: 7 mM inhibitor, 1 mM IPTG
# T2 construct: expressed in transfected cells; host or cells: E. coli JM105, vector ptrc-99 A, IPTG-induced
# T2 sequence (Q55810 1-339): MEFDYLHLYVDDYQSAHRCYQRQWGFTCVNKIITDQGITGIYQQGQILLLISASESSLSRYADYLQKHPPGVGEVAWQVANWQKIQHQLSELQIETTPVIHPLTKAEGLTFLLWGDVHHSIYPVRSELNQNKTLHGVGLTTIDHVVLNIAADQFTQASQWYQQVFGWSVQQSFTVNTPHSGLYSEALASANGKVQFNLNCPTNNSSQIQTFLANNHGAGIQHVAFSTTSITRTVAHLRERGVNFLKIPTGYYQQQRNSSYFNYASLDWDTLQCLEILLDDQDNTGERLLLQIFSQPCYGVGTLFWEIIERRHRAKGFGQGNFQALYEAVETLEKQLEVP
# Description: as §1
# The dioxygenase activity of the Synechocystis HPPD which had thus been obtained was observed by the browning of the medium, using the previously described colorimetric test, with addition of IPTG (isopropyl-b-D-thiogalactopyranoside) at a concentration of 1 mM in order to induce expression of the protein.
# [11] = test system: Pseudomonas fluorescens A32 HPPD, wild type (unmutated, vector pRPC); assay: as above; format: cell-based; settings: 7 mM inhibitor
# From the text: The vector pRPA (described in application WO96/38567), which contains a genomic DNA fragment and the coding region of the gene for HPPD from Pseudomonas fluorescens A32, was digested with NcoI, purified and then ligated into the expression vector pKK233-2 (Clontech), which itself was digested with NcoI, the site for which forms a unique cloning site in this vector. The orientation of the gene in the resulting pRPC vector which permitted expression under the control of the trc promoter was verified.
# as §1, with “brown. […]” for “brown.”
# [12] = molecular target: T3, Synechocystis PCC6803 HPPD variant SyA318 (Glycine318 replaced with alanine) (Synechocystis sp., UniProt Q55810, G318A); assay: as above; format: cell-based; settings: 7 mM inhibitor
# T3 construct: made in house; host or cells: E. coli, vector ptrc-99 A; crude extract (JM105 is named for the unmutated plasmid)
# Description: as §1
# (§8) With several mutants at position 334 in Pseudomonas fluorescens having been obtained, two site-directed mutagenesis experiments (U.S.E., Pharmacia) were carried out using the oligonucleotides MUGLYA and MUGLYB, which oligonucleotides were intended to replace the glycine at position 318 (of Synechocystis corresponding to the glycine at position 334 of P.fluorescens) either with an asparagine or a serine or with a proline or an alanine (SEQ ID NO 18 and 19).
# (§9) One mutant from each experiment was sequenced.
# (§10) Glycine318, replaced with alanine, designated SyA318, similar to PfA334 (in Example 3).
# [13] = molecular target: T1, Synechocystis PCC6803 HPPD variant SyN318 (Glycine318 replaced with asparagine); assay: as above; format: cell-based; settings: 7 mM inhibitor
# Description: as §1, §8, §9, §3
# [14] = molecular target: T3, Synechocystis PCC6803 HPPD variant SyA318 (Glycine318 replaced with alanine); assay: HPPD activity by HPLC determination of homogentisate (Km, IC50); format: biochemical
# Description: as §10, §4, §5, §6, §7
# [15] = test system: Synechocystis PCC6803 HPPD variant SyA318 (Glycine318 replaced with alanine); assay: as above; format: biochemical; settings: SyA318 versus unmutated Synechocystis HPPD; 10 min
# Description: as §10, §4, §5, §6, §7
# [16] = molecular target: Synechocystis PCC6803 HPPD, native (unmutated) (Synechocystis sp., UniProt Q55810); assay: as above
# O=C(O)C(=O)Cc1ccc(O)cc1 [17] = assay: as above; format: biochemical; settings: other: Km of the HPPD for HPP, crude extract, 30° C., pH7.5, pH 7.5
# Description: as §10, §4, §5, §6, §7
# O=C(O)C(=O)Cc1ccc(O)cc1 [18] = assay: as above; format: biochemical; settings: other: Km of the HPPD for HPP, crude extract, 30° C., pH7.5, pH 7.5; remark: listed apart in the source
# Description: as §3, §4, §5, §6, §7
# O=C(O)C(=O)Cc1ccc(O)cc1 [19] = assay: cells, lysate or membranes named; settings: other: Km of the HPPD for HPP, crude extract, 30° C., pH7.5, pH 7.5
compound,measurement,setting,value
"CS(=O)(=O)c1cc(C(F)(F)F)ccc1C(=O)C(C#N)C(=O)C1CC1 (stereo not drawn) [2-cyano-3-cyclopropyl-1-(2-methylsulphonyl-4-trifluoromethylphenyl)propane-1,3-dione]",Activity in the screening test using a selective agent dose of 7 mM,[1],5
same,Activity in the screening test using a selective agent dose of 7 mM,[2],7
same,Activity in the screening test using a selective agent dose of 7 mM,[3],4
same,Activity in the screening test using a selective agent dose of 7 mM,[4],7
same,colour of the screening medium,[5],turn brown
same,Activity in the screening test using a selective agent dose of 7 mM,[5]; score 0 to 10,3
same,Activity in the screening test using a selective agent dose of 7 mM,[6],1
same,Activity in the screening test using a selective agent dose of 7 mM,[7],6
same,ratio of the IC50 of a mutant HPPD to the IC50 of the non-mutant HPPD,[8],1000
same,IC50,[9],80 µM
same,browning of the medium in the colorimetric test,[10],no browning of the medium
same,colour of the bacterial culture in the colorimetric test,"[11]; dissolved in water, pH7.5",totally without colour
same,Activity in the screening test using a selective agent dose of 7 mM,[11]; score 0 to 10,0
same,browning of the screening medium,[12],caused browning of the screening medium
same,browning of the screening medium,[13],caused browning of the screening medium
same,IC50,[14],40 µM
same,ratio of the IC50 of a mutant HPPD to the IC50 of the non-mutant HPPD,[15],500
same,IC50,[16],0.08 µM
Synechocystis PCC6803 HPPD variant SyA318 (Glycine318 replaced with alanine) (Synechocystis sp. PCC 6803 substr. Kazusa; G318A),Km,O=C(O)C(=O)Cc1ccc(O)cc1 [17],320 µM
Synechocystis PCC6803 HPPD variant SyN318 (Glycine318 replaced with asparagine) (Synechocystis sp. PCC 6803 substr. Kazusa; G318N),Km,O=C(O)C(=O)Cc1ccc(O)cc1 [18],470 µM
"Synechocystis PCC6803 HPPD, native (unmutated) (Synechocystis sp. PCC 6803 substr. Kazusa)",Km,O=C(O)C(=O)Cc1ccc(O)cc1 [19],60 µM
